Experimental data: patent publication US20190328891A1, “MEDICAL PREPARATION WITH A CARRIER BASED ON HYALURONAN AND/OR DERIVATIVES THEREOF, METHOD OF PREPARATION AND USE THEREOF” (CONTIPRO A.S., priority 2016, published 2019)
Square brackets hold non-standard residues; d marks the D form. Nle = CCCC[C@H](N)C(=O)O

Tests used:
injured skin = conditions: rabbits, alginate bandage containing the peptide; in comparison with Ser-Ile-Lys-Val-Ala-Val and Val-Pro-Val-Ala-Pro-Gly anchored on alginate bandage; cited from earlier work
[1] = test system: Primary human fibroblasts (NHDF); assay: In vitro cell adhesion on the fibre comprising RGD motif; format: cell-based; conditions: fibre of native HYA with bonded peptide; DiI stained NHDF, 10^5 cells; fluorescent microscope; monitored for 7 days of cultivation (FIG. 6)
Experimental: The fibre of native HYA comprising RGD motif, prepared according to the procedure described in Example 14, and control fibres were cut into 1 cm pieces and transferred onto a non-adhesive panel with 24 wells. Primary human fibroblasts (NHDF) were pre-marked with the fluorescent dye DiI (Exmax/Emmax 549/565) and inoculated, in the amount of 10^5 cells, into the wells filled with the tested samples. Then the panel was shaken by a shaker (5 hrs/160 rpm) to keep the cells in suspension, under cultivation conditions (37° C., 5% CO2). After 24 h of cultivation the fibres were transferred into a well with fresh cultivation medium. Then the cells were observed and detected by fluorescent microscope Nikon Ti-Eclipse with the use of TRITC filter (Exmax/Emmax, 549/565). The fibroblasts proliferation was monitored for 7 days of cultivation.

## Ser-Ile-Arg-Val-X-Val-X-Pro-Gly (where X=Ala or Gly)
Injured skin
  epithelization: significantly higher
  volume of regenerated tissue: larger

## H-Gly-Gly-Gly-Arg-Gly-Asp-Nle-O-HYA (H-GGGRGD[Nle]-{O‑hyaluronan}) [H-Gly-Gly-Gly-Arg-Gly-Asp-Nle-OH, peptide with triglycine and RGD anchored to native hyaluronan fibre]
[1]
  adhesion and proliferation of human dermal fibroblasts on the fibre: did not support the cell adhesion

## H-Ahx-Ahx-Arg-Gly-Asp-Nle-O-HYA [H-Ahx-Ahx-Arg-Gly-Asp-Nle-OH]
[1]
  adhesion and proliferation of human dermal fibroblasts on the fibre: did not support the cell adhesion

## H-Arg-Gly-Asp-Gly-Gly-Gly-Nle-O-HYA (H-RGDGGG[Nle]-{O‑hyaluronan}) [H-Arg-Gly-Asp-Gly-Gly-Gly-Nle-OH, RGD peptide linked to native hyaluronan fibre via triglycine linker]
[1]
  adhesion and proliferation of human dermal fibroblasts on the fibre: did not support the cell adhesion
